Test results: paper PMC11420776 (RSC Advances, 2024)

What was measured:
[1] = test system: CCRF-CEM (leukemia); assay: NCI 60-cell one-dose antiproliferative screen; assay type: cell-based, human; conditions: one dose 10 μM
[2] = test system: RPMI-8226 (leukemia); assay: NCI 60-cell one-dose antiproliferative screen; assay type: cell-based, human; conditions: one dose 10 μM
[3] = test system: A549/ATCC (NSC lung cancer); assay: NCI 60-cell one-dose antiproliferative screen; assay type: cell-based, human; conditions: one dose 10 μM
[4] = test system: EKVX (NSC lung cancer); assay: NCI 60-cell one-dose antiproliferative screen; assay type: cell-based, human; conditions: one dose 10 μM
[5] = test system: HOP-62 (NSC lung cancer); assay: NCI 60-cell one-dose antiproliferative screen; assay type: cell-based, human; conditions: one dose 10 μM
[6] = test system: HOP-92 (NSC lung cancer); assay: NCI 60-cell one-dose antiproliferative screen; assay type: cell-based, human; conditions: one dose 10 μM
[7] = test system: NCI-H226 (NSC lung cancer); assay: NCI 60-cell one-dose antiproliferative screen; assay type: cell-based, human; conditions: one dose 10 μM
[8] = test system: NCI-H23 (NSC lung cancer); assay: NCI 60-cell one-dose antiproliferative screen; assay type: cell-based, human; conditions: one dose 10 μM
[9] = test system: NCI-H322M (NSC lung cancer); assay: NCI 60-cell one-dose antiproliferative screen; assay type: cell-based, human; conditions: one dose 10 μM
[10] = test system: NCI-H460 (NSC lung cancer); assay: NCI 60-cell one-dose antiproliferative screen; assay type: cell-based, human; conditions: one dose 10 μM
[11] = test system: NCI-H522 (NSC lung cancer); assay: NCI 60-cell one-dose antiproliferative screen; assay type: cell-based, human; conditions: one dose 10 μM
[12] = test system: COLO-205 (colon cancer); assay: NCI 60-cell one-dose antiproliferative screen; assay type: cell-based, human; conditions: one dose 10 μM
[13] = test system: HCC-2998 (colon cancer); assay: NCI 60-cell one-dose antiproliferative screen; assay type: cell-based, human; conditions: one dose 10 μM
[14] = test system: HCT-116 (colon cancer); assay: NCI 60-cell one-dose antiproliferative screen; assay type: cell-based, human; conditions: one dose 10 μM
[15] = test system: HCT-15 (colon cancer); assay: NCI 60-cell one-dose antiproliferative screen; assay type: cell-based, human; conditions: one dose 10 μM
[16] = test system: HT29 (colon cancer); assay: NCI 60-cell one-dose antiproliferative screen; assay type: cell-based, human; conditions: one dose 10 μM
[17] = test system: KM12 (colon cancer); assay: NCI 60-cell one-dose antiproliferative screen; assay type: cell-based, human; conditions: one dose 10 μM
[18] = test system: SW-620 (colon cancer); assay: NCI 60-cell one-dose antiproliferative screen; assay type: cell-based, human; conditions: one dose 10 μM
[19] = test system: SF-268 (CNS cancer); assay: NCI 60-cell one-dose antiproliferative screen; assay type: cell-based, human; conditions: one dose 10 μM
[20] = test system: SF-295 (CNS cancer); assay: NCI 60-cell one-dose antiproliferative screen; assay type: cell-based, human; conditions: one dose 10 μM
[21] = test system: SF-539 (CNS cancer); assay: NCI 60-cell one-dose antiproliferative screen; assay type: cell-based, human; conditions: one dose 10 μM
[22] = test system: SNB-19 (CNS cancer); assay: NCI 60-cell one-dose antiproliferative screen; assay type: cell-based, human; conditions: one dose 10 μM
[23] = test system: SNB-75 (CNS cancer); assay: NCI 60-cell one-dose antiproliferative screen; assay type: cell-based, human; conditions: one dose 10 μM
[24] = test system: U251 (CNS cancer); assay: NCI 60-cell one-dose antiproliferative screen; assay type: cell-based, human; conditions: one dose 10 μM
[25] = test system: LOX IMIV (melanoma); assay: NCI 60-cell one-dose antiproliferative screen; assay type: cell-based, human; conditions: one dose 10 μM
[26] = test system: MALME-3M (melanoma); assay: NCI 60-cell one-dose antiproliferative screen; assay type: cell-based, human; conditions: one dose 10 μM
[27] = test system: M14 (melanoma); assay: NCI 60-cell one-dose antiproliferative screen; assay type: cell-based, human; conditions: one dose 10 μM
[28] = test system: MDA-MB-435 (melanoma); assay: NCI 60-cell one-dose antiproliferative screen; assay type: cell-based, human; conditions: one dose 10 μM
[29] = test system: SK-MEL-2 (melanoma); assay: NCI 60-cell one-dose antiproliferative screen; assay type: cell-based, human; conditions: one dose 10 μM
[30] = test system: SK-MEL-28 (melanoma); assay: NCI 60-cell one-dose antiproliferative screen; assay type: cell-based, human; conditions: one dose 10 μM
[31] = test system: UACC-257 (melanoma); assay: NCI 60-cell one-dose antiproliferative screen; assay type: cell-based, human; conditions: one dose 10 μM
[32] = test system: UACC-62 (melanoma); assay: NCI 60-cell one-dose antiproliferative screen; assay type: cell-based, human; conditions: one dose 10 μM
[33] = test system: IGROV1 (ovarian cancer); assay: NCI 60-cell one-dose antiproliferative screen; assay type: cell-based, human; conditions: one dose 10 μM
[34] = test system: OVCAR-3 (ovarian cancer); assay: NCI 60-cell one-dose antiproliferative screen; assay type: cell-based, human; conditions: one dose 10 μM
[35] = test system: OVCAR-4 (ovarian cancer); assay: NCI 60-cell one-dose antiproliferative screen; assay type: cell-based, human; conditions: one dose 10 μM
[36] = test system: OVCAR-5 (ovarian cancer); assay: NCI 60-cell one-dose antiproliferative screen; assay type: cell-based, human; conditions: one dose 10 μM
[37] = test system: OVCAR-8 (ovarian cancer); assay: NCI 60-cell one-dose antiproliferative screen; assay type: cell-based, human; conditions: one dose 10 μM
[38] = test system: NCI/ADR-RES (ovarian cancer); assay: NCI 60-cell one-dose antiproliferative screen; assay type: cell-based, human; conditions: one dose 10 μM
[39] = test system: SK-OV-3 (ovarian cancer); assay: NCI 60-cell one-dose antiproliferative screen; assay type: cell-based, human; conditions: one dose 10 μM
[40] = test system: 786-0 (renal cancer); assay: NCI 60-cell one-dose antiproliferative screen; assay type: cell-based, human; conditions: one dose 10 μM
[41] = test system: A498 (renal cancer); assay: NCI 60-cell one-dose antiproliferative screen; assay type: cell-based, human; conditions: one dose 10 μM
[42] = test system: ACHN (renal cancer); assay: NCI 60-cell one-dose antiproliferative screen; assay type: cell-based, human; conditions: one dose 10 μM
[43] = test system: CAKI-1 (renal cancer); assay: NCI 60-cell one-dose antiproliferative screen; assay type: cell-based, human; conditions: one dose 10 μM
[44] = test system: RXF 393 (renal cancer); assay: NCI 60-cell one-dose antiproliferative screen; assay type: cell-based, human; conditions: one dose 10 μM
[45] = test system: SN12C (renal cancer); assay: NCI 60-cell one-dose antiproliferative screen; assay type: cell-based, human; conditions: one dose 10 μM
[46] = test system: TK-10 (renal cancer); assay: NCI 60-cell one-dose antiproliferative screen; assay type: cell-based, human; conditions: one dose 10 μM
[47] = test system: UO-31 (renal cancer); assay: NCI 60-cell one-dose antiproliferative screen; assay type: cell-based, human; conditions: one dose 10 μM
[48] = test system: PC-3 (prostate cancer); assay: NCI 60-cell one-dose antiproliferative screen; assay type: cell-based, human; conditions: one dose 10 μM
[49] = test system: DU-145 (prostate cancer); assay: NCI 60-cell one-dose antiproliferative screen; assay type: cell-based, human; conditions: one dose 10 μM
[50] = test system: MCF7 (breast cancer); assay: NCI 60-cell one-dose antiproliferative screen; assay type: cell-based, human; conditions: one dose 10 μM
[51] = test system: MDA-MB-231/ATCC (breast cancer); assay: NCI 60-cell one-dose antiproliferative screen; assay type: cell-based, human; conditions: one dose 10 μM
[52] = test system: HS 578T (breast cancer); assay: NCI 60-cell one-dose antiproliferative screen; assay type: cell-based, human; conditions: one dose 10 μM
[53] = test system: T-47D (breast cancer); assay: NCI 60-cell one-dose antiproliferative screen; assay type: cell-based, human; conditions: one dose 10 μM
[54] = test system: MDA-MB-468 (breast cancer); assay: NCI 60-cell one-dose antiproliferative screen; assay type: cell-based, human; conditions: one dose 10 μM
[55] = test system: 60 human tumor cell lines; assay: NCI 60-cell one-dose antiproliferative screen, whole panel; assay type: cell-based

Q: Which GI% [1] does the source give for Cc1cc(C)n(-c2ccc3nnc(-c4ccccc4)n3n2)n1 [Compound 5, 6-(3,5-dimethyl-1H-pyrazol-1-yl)-3-phenyl-[1,2,4]triazolo[4,3-b]pyridazine] here?
A: Its GI% is “— (— GI% is below 15%)”.

Q: What about the GI% [2] of the same molecule?
A: The GI% was “— (— GI% is below 15%)”.

Q: What about the GI% [3] of the same molecule?
A: Its GI% is “— (— GI% is below 15%)”.

Q: And the GI% [4]?
A: Its GI% is “— (— GI% is below 15%)”.

Q: What about the GI% [5] of the same molecule?
A: The GI% was “— (— GI% is below 15%)”.

Q: And the GI% [6]?
A: Its GI% is “— (— GI% is below 15%)”.

Q: What about the GI% [7] of the same molecule?
A: The GI% was “— (— GI% is below 15%)”.

Q: And the GI% [8]?
A: The GI% was “— (— GI% is below 15%)”.

Q: And the GI% [9]?
A: Its GI% is “— (— GI% is below 15%)”.

Q: And the GI% [10]?
A: Its GI% is “— (— GI% is below 15%)”.

Q: What about the GI% [11] of the same molecule?
A: The GI% was 25.34%.

Q: And the GI% [12]?
A: The GI% was “— (— GI% is below 15%)”.

Q: What about the GI% [13] of the same molecule?
A: Its GI% is “— (— GI% is below 15%)”.

Q: What about the GI% [14] of the same molecule?
A: Its GI% is “— (— GI% is below 15%)”.

Q: What about the GI% [15] of the same molecule?
A: Its GI% is “— (— GI% is below 15%)”.

Q: And the GI% [16]?
A: Its GI% is “— (— GI% is below 15%)”.

Q: What about the GI% [17] of the same molecule?
A: Its GI% is “— (— GI% is below 15%)”.

Q: What about the GI% [18] of the same molecule?
A: The GI% was “— (— GI% is below 15%)”.

Q: And the GI% [19]?
A: Its GI% is “— (— GI% is below 15%)”.

Q: What about the GI% [20] of the same molecule?
A: Its GI% is “— (— GI% is below 15%)”.

Q: And the GI% [21]?
A: Its GI% is “— (— GI% is below 15%)”.

Q: What about the GI% [22] of the same molecule?
A: Its GI% is “— (— GI% is below 15%)”.

Q: What about the GI% [23] of the same molecule?
A: Its GI% is “— (— GI% is below 15%)”.

Q: What about the GI% [24] of the same molecule?
A: The GI% was “— (— GI% is below 15%)”.

Q: And the GI% [25]?
A: Its GI% is 22.70%.

Q: And the GI% [26]?
A: Its GI% is “— (— GI% is below 15%)”.

Q: And the GI% [27]?
A: Its GI% is “— (— GI% is below 15%)”.

Q: What about the GI% [28] of the same molecule?
A: The GI% was “— (— GI% is below 15%)”.

Q: And the GI% [29]?
A: The GI% was “— (— GI% is below 15%)”.

Q: What about the GI% [30] of the same molecule?
A: The GI% was “— (— GI% is below 15%)”.

Q: And the GI% [31]?
A: The GI% was “— (— GI% is below 15%)”.

Q: And the GI% [32]?
A: The GI% was “— (— GI% is below 15%)”.

Q: And the GI% [33]?
A: The GI% was “— (— GI% is below 15%)”.

Q: What about the GI% [34] of the same molecule?
A: Its GI% is “— (— GI% is below 15%)”.

Q: What about the GI% [35] of the same molecule?
A: The GI% was “— (— GI% is below 15%)”.

Q: What about the GI% [36] of the same molecule?
A: Its GI% is “— (— GI% is below 15%)”.

Q: What about the GI% [37] of the same molecule?
A: The GI% was “— (— GI% is below 15%)”.

Q: What about the GI% [38] of the same molecule?
A: The GI% was 23.93%.

Q: And the GI% [39]?
A: The GI% was “— (— GI% is below 15%)”.

Q: And the GI% [40]?
A: The GI% was “— (— GI% is below 15%)”.

Q: What about the GI% [41] of the same molecule?
A: Its GI% is “— (— GI% is below 15%)”.

Q: What about the GI% [42] of the same molecule?
A: The GI% was “— (— GI% is below 15%)”.

Q: What about the GI% [43] of the same molecule?
A: The GI% was 25.28%.

Q: What about the GI% [44] of the same molecule?
A: Its GI% is “— (— GI% is below 15%)”.

Q: What about the GI% [45] of the same molecule?
A: The GI% was “— (— GI% is below 15%)”.

Q: And the GI% [46]?
A: Its GI% is “— (— GI% is below 15%)”.

Q: What about the GI% [47] of the same molecule?
A: The GI% was greater than 100%.

Q: What about the GI% [48] of the same molecule?
A: The GI% was “— (— GI% is below 15%)”.

Q: What about the GI% [49] of the same molecule?
A: The GI% was “— (— GI% is below 15%)”.

Q: What about the GI% [50] of the same molecule?
A: The GI% was “— (— GI% is below 15%)”.

Q: And the GI% [51]?
A: Its GI% is “— (— GI% is below 15%)”.

Q: What about the GI% [52] of the same molecule?
A: The GI% was “— (— GI% is below 15%)”.

Q: And the GI% [53]?
A: The GI% was “— (— GI% is below 15%)”.

Q: What about the GI% [54] of the same molecule?
A: The GI% was “— (— GI% is below 15%)”.

Q: What about the inhibition at 10 µM ([55]; Homo sapiens, 60 cell, read-out: Mean inhibition (mean GI%)) of the same molecule?
A: Its inhibition at 10 µM is less than 0%.

Q: What about the “cytotoxic activity in words” value ([55]; NCI-60 panel, one dose 10 μM) of the same molecule?
A: Its value is “demolished cytotoxicity”.
